Source: publication PMC7456776, “The utility of a differentiated preclinical liver model, HepaRG cells, in investigating delayed toxicity via inhibition of mitochondrial-replication induced by fialuridine” (Toxicology and Applied Pharmacology, 2020)
Entries after “also recorded” stand apart in the source; their conditions may differ. Like-named read-outs stand apart in the source and are kept apart here.

Key:
HepaRG cells [1] = assay: Seahorse XFe mitochondrial stress test (oxygen consumption, extracellular acidification); type: cell-based, human
Method: (§1) Briefly, following the dosing period, media was switched to unbuffered XF basal medium (175 μl, pH 7.4) supplemented with glucose (25 mM), L-glutamine (2 mM) and sodium pyruvate (1 mM) before incubating in a CO2 free incubator (37 °C). Oxygen consumption was measured by Seahorse XFe96 according to the previously described protocol ([Kamalian et al., 2018]).

HepaRG cells [2] = assay: Metabolic modification assay: dual ATP and cell viability (total cellular protein) assessment, extended dosing; type: cell-based, human
Method: In accordance with Biopredic international guidelines, undifferentiated HepaRG cells were seeded into clear flat bottomed 96 well (9000 cells/well) or Seahorse plates (4000 cells/well). They were grown for two weeks in growth media before their differentiation over 2 further weeks in differentiation media. Cells were kept at 37 °C, 5% CO2 in a humidified environment and received fresh, appropriate media twice a week. The fully differentiated cells were then used over the following four-week period, whilst being maintained in differentiation media. All experiments were performed using cells at passage number < 20.
(§2) Differentiated HepaRG cells were treated with 0–300 μM final concentrations of FIAU (1–4 weeks). FIAU was replaced in fresh differentiation media every 3–4 days. The final concentration of DMSO was at a constant 0.5% v/v in both HepaRG and HepG2 treatments. In all experiments dosing was performed in glucose supplemented media.
This was performed as previously described ([Kamalian et al., 2018]). […] IC50 values were calculated using Prism (GraphPad, California, USA) (Table 1) and criteria applied to identify a compound as a direct mitochondrial toxin.
Each experiment was performed on three or more independent occasions (n ≥ 3). IC50 values were calculated using GraphPad Prism 7 software, and were expressed as a mean ± standard deviation (SD). For all other statistical analysis comparing the values obtained from treated cells to vehicle control an ANOVA was performed, with a Dunnett or Tukey post hoc analysis where appropriate. P values lower than 0.05 were considered as statistically significant for both tests.

HepG2 cells [3] = assay: Mitochondrial DNA content by real-time PCR; type: cell-based, human; details: HepG2, 1.3–100 μM, up to 72 h
Method: (§3) DNA was extracted via QIAamp DNA Mini Kit (Qiagen, Crawley, UK). Relative levels of mtDNA copy number were determined by real-time pre-designed PCR Taqman detection kits designed to target the mitochondrial MT-ND1 gene and the nuclear RNase P gene, using TAQMAN GT Master Mix. PCR reactions were performed according to standard conditions for TaqMan: 95 °C for 10 min; 40 cycles at (95 °C 15 s, 60 °C 1 min). PCR assays were performed in duplicate for each DNA sample. Analysis was undertaken with mitochondrial ND-1 normalised to genomic RNase P and treated sample to the appropriate vehicle.
Figure Supp 3: Mitochondrial DNA content in HepG2 cells exposed to FIAU (48 and 72 h). MtDNA content was measured by real-time PCR. HepG2 cells were exposed to FIAU (10 and 100 µM) at 48 h (black bar) and 72 h (grey bar). All results are presented as % of vehicle control. n=3.

HepaRG cells [4] = assay: Cellular steatosis by Oil Red O staining; type: cell-based, human; details: 12 μM, 4 weeks
Method: Following drug treatment cells were washed twice in PBS and fixed in 4% paraformaldehyde (1 h, RT). Cells were then washed twice in ddH2O and incubated in isopropanol (IPA, 60% v/v, 5 min). Oil red O working solution (3:2 in ddH2O from the stock solution of 0.33% w/v in 100% IPA) was applied to the cells for 20 min. Background staining was removed by several washes with ddH2O and a 5 min wash in 60% v/v IPA. The intracellular lipid was extracted by 100% IPA after the wells were dried. The lipid content was quantified by reading the optical density at 540 nm on a Varioskan Flash (Thermo Fisher Scientific, USA).

HepG2 cells [5] = assay: Metabolic modification assay: ATP and total cellular protein, 72 h; type: cell-based, human; details: for Total cellular protein, % of vehicle control: HepG2, 300 μM, 3 days
Method: HepG2 cells were cultured and maintained in DMEM media as described previously ([Kamalian et al., 2015]).
as §2
This was performed as previously described ([Kamalian et al., 2018]). Briefly, following the dosing period, media was switched to either “glucose” or “galactose” media for 2 h prior to measuring cellular ATP content and lactate dehydrogenase (LDH) release as a marker of cell viability, both normalised to protein content. IC50 values were calculated using Prism (GraphPad, California, USA) (Table 1) and criteria applied to identify a compound as a direct mitochondrial toxin.

patients = system: patients; set-up: method as in McKenzie et al., 1995; details: ref McKenzie et al., 1995, cited from earlier work
HepG2 cells [6] = assay: Seahorse XFe mitochondrial stress test; type: cell-based, human; details: HepG2, 1.3–100 μM, up to 72 h
Method: as §1
Figure Supp 4: The effect of FIAU on mitochondrial respiratory activity of HepG2 cells. The bioenergetic parameters of HepG2 cells following exposure to FIAU (12 µM) were calculated using Seahorse respirometry at 48 h (black bar) and 72 h (grey bar). All results are presented as % of vehicle control. Key: dashed line marks vehicle control at 100 %. n=3.

[7] = set-up: method as in Bowsher et al., 1994; details: healthy volunteers, 5 mg single dose; ref Bowsher et al., 1994; cited from earlier work
HepaRG cells [8] = assay: Cellular L-lactate release; type: cell-based, human; details: 12 μM, four-week exposure
Method: Following incubation with drug the media from cells was transferred to a fresh 96-well plate and L-lactate levels were measured using an L-lactate assay kit as per the manufacturer's instructions.

PHH spheroids = system: PHH spheroids; set-up: method as in Bell et al., 2016; details: 3D PHH spheroids, 7 days; ref Bell et al., 2016; cited from earlier work
[9] = system: mitochondrial respiratory complexes I, II, IV in permeabilised HepaRG cells; assay: In-situ mito substrate assay of individual respiratory complex activity in permeabilised cells (Seahorse); type: cell-based, human; details: 12 μM
Description: The assessment of individual mitochondrial complex activity was preformed using the in-situ mito substrate assay in permeabilised cells using Seahorse Technology as previously described ([Ball et al., 2016]).

HepG2 cells [10] = system: HepG2 cells; set-up: method as in Colacino et al., 1994; details: 9 days, 30 μM, ref Colacino et al., 1994; cited from earlier work
HepaRG cells [11] = details: human, 12 μM
Method: Samples were prepared for transmission electron microscopy (TEM) in 3 cm dishes as follows. Cells were fixed in 2.5% (w/v) glutaraldehyde in 0.1 M phosphate buffer (pH 7.4) before staining with reduced osmium (2% (w/v) OsO4, 1.5% (w/v) potassium ferrocyanide in ddH2O), 1% (w/v) thiocarbohydrazide, 2% OsO4 (w/v in ddH20), then 1% (w/v) aqueous uranyl acetate overnight at 4 °C. The next day samples were finally stained with Walton's lead aspartate (0.02 M lead nitrate, 0.03 M aspartic acid, pH 5.5). To prevent precipitation artefacts the cells were washed copiously with ddH2O between each staining step. […] Dehydration was in a graded ethanol series before filtration and embedding in medium premix resin (TAAB, Reading, UK).
For TEM, 70–74 nm serial sections were cut using a UC6 ultra microtome (Leica Microsystems, Wetzlar, Germany) and collected on Formvar (0.25% (w/v) in chloroform, TAAB, Reading, UK) coated Gilder 200 mesh copper grids (GG017/C, TAAB, Reading, UK). […]
Resultant TEM images were analysed using Image J software to measure intracellular mitochondrial features (NIH, USA). […] In brief, total mitochondria number per cell was counted as well as mitochondria area (μM^2) alongside cytosol area (calculated as total cell area minus nuclear area and vacuole area μM^2).

HepaRG cells [12] = assay: Mitochondrial DNA content by real-time PCR (MT-ND1 normalised to RNase P); type: cell-based, human
Method: as §3

HepG2 cells [13] = system: HepG2 cells; set-up: method as in Colacino et al., 1994; details: 6 days of treatment, ref Colacino et al., 1994; cited from earlier work

In the case of `O=c1[nH]c(=O)n([C@@H]2O[C@H](CO)[C@@H](O)[C@H]2F)cc1I` [FIAM], the Mitochondrial respiration (HepaRG cells [1]; 2 weeks, 12 μM and up to 100 μM) is reported as “did not reduce mitochondrial respiration”, the Cytotoxic effects (HepaRG cells [2]; HepaRG cells, up to 4 weeks) is reported as “no cytotoxic effects” and the “Cellular ATP content or cell viability compared to vehicle control” value (HepaRG cells [2]; HepaRG, 4-week incubation period) is reported as “no significant differences; also recorded: did not induce any decrease”.

With `O=c1[nH]c(=O)n([C@@H]2O[C@H](CO)[C@@H](O)[C@@H]2F)cc1I` [FIAU, fialuridine] the Mitochondrial copy number (HepG2 cells [3]) was “no significant differences in mitochondrial copy number”, the “Accumulation of intracellular lipids (oil red O)” value (HepaRG cells [4]) was “no accumulation of intracellular lipids” and the “Total cellular protein, % of vehicle control” value (HepG2 cells [5]; galactose media) was 40.5 ± 13.4%. For the same compound, the “Total cellular protein, % of vehicle control” value (HepG2 cells [5]; glucose media) was 49.0 ± 22.7%, the Classification as mitotoxin (HepG2 cells [5]; HepG2 cells, up to 3 days) was “cannot be classified as a mitotoxin” and the “Adverse effects in clinical trial” value (patients; extended trial period) was “five deaths from acute liver failure”. For the same compound, the “Time at which toxicity became apparent” value (patients; week of treatment) was greater than 13 week, the Bioenergetic parameters (HepG2 cells [6]) was “no significant differences in bioenergetic parameters” and the Cmax [7] was 600 nM. For the same compound, the “Extracellular L-lactate in cell supernatant” value (HepaRG cells [8]) was “no significant increase in L-lactate”, the “Parameters of oxygen consumption (BR, ALR, MR, SRC, PL, CE)” value (HepaRG cells [1]; 12 μM, 1 week) was “no significant changes” and the “ATP-linked respiration (ALR), % of vehicle control” value (HepaRG cells [1]; 12 μM, 2 weeks) was 77.4 ± 21.5%. The “Basal respiration (BR), % of vehicle control” value (HepaRG cells [1]; 12 μM, 2 weeks) was 85.7 ± 28.1%, the “Maximal respiration (MR), % of vehicle control” value (HepaRG cells [1]; 12 μM, 2 weeks) was 72.0 ± 19.1% and the “Proton leak (PL) and coupling efficiency (CE)” value (HepaRG cells [1]; 12 μM, 2 weeks) was “remained unchanged”. For the same compound, the “Spare respiratory capacity (SRC), % of vehicle control” value (HepaRG cells [1]; 12 μM, 2 weeks) was 65.9 ± 15.5%, the Extracellular acidification rate (HepaRG cells [1]; over 2 weeks of treatment) was “no dose- or time-dependent increases” and the IC50 (PHH spheroids) was 0.7 µM. For the same compound, the “Complex I activity, % of vehicle control” value ([9]; 2 weeks) was 26.9 ± 6.9%, the “Complex II activity, % of vehicle control” value ([9]; 2 weeks) was 35.5 ± 17.7% and the “Complex IV activity, % of vehicle control” value ([9]; 2 weeks) was 36.0 ± 15.9%. For the same compound, the “Complex I activity, % of vehicle control” value ([9]; week 1) was 67.4 ± 13.5%, the “Complex II activity, % of vehicle control” value ([9]; week 1) was 70.3 ± 9.8% and the mtDNA replication (HepG2 cells [10]) was “decreases”. For the same compound, the “Concentration at which toxic effects were observed” value (HepaRG cells [2]; HepaRG, extended dosing, 2 weeks) was “around 10 μM”, the IC50 (HepaRG cells [2]; HepaRG, wk 3 exposure, galactose media, read-out: IC50-ATP ± S.D., Galactose) was 5.7 ± 2.8 µM and the IC50 (HepaRG cells [2]; Homo sapiens, HepaRG, wk 1, galactose media, total cellular protein, read-out: IC50-viability ± S.D., Galactose) was 101 ± 27 µM. The IC50 (HepaRG cells [2]; Homo sapiens, HepaRG, wk 1, glucose media, total cellular protein, read-out: IC50-viability ± S.D., Glucose) was 118 ± 42 µM, the IC50 (HepaRG cells [2]; Homo sapiens, HepaRG, wk 1 exposure, galactose media, read-out: IC50-ATP ± S.D., Galactose) was 103 ± 13.8 µM and the IC50 (HepaRG cells [2]; Homo sapiens, HepaRG, wk 1 exposure, glucose media, read-out: IC50-ATP ± S.D., Glucose) was 112 ± 32.8 µM. For the same compound, the IC50 (HepaRG cells [2]; Homo sapiens, HepaRG, wk 2, galactose media, total cellular protein, read-out: IC50-viability ± S.D., Galactose) was 7.3 ± 3.8 µM, the IC50 (HepaRG cells [2]; Homo sapiens, HepaRG, wk 2, glucose media, total cellular protein, read-out: IC50-viability ± S.D., Glucose) was 26.1 ± 9.3 µM and the IC50 (HepaRG cells [2]; Homo sapiens, HepaRG, wk 2 exposure, glucose media, read-out: IC50-ATP ± S.D., Glucose) was 16.8 ± 2.3 µM. It also gave an IC50 (HepaRG cells [2]; Homo sapiens, HepaRG, wk 3, galactose media, total cellular protein, read-out: IC50-viability ± S.D., Galactose) of 15.5 ± 3.4 µM, an IC50 (HepaRG cells [2]; Homo sapiens, HepaRG, wk 3, glucose media, total cellular protein, read-out: IC50-viability ± S.D., Glucose) of 14.2 ± 1.3 µM and an IC50 (HepaRG cells [2]; Homo sapiens, HepaRG, wk 3 exposure, galactose media, read-out: IC50-ATP ± S.D., Galactose) of 5 µM. The IC50 (HepaRG cells [2]; Homo sapiens, HepaRG, wk 3 exposure, glucose media, read-out: IC50-ATP ± S.D., Glucose) was 5.4 ± 2.3 µM, the IC50 (HepaRG cells [2]; Homo sapiens, HepaRG, wk 4, galactose media, total cellular protein, read-out: IC50-viability ± S.D., Galactose) was 3.6 ± 2.8 µM and the IC50 (HepaRG cells [2]; Homo sapiens, HepaRG, wk 4, glucose media, total cellular protein, read-out: IC50-viability ± S.D., Glucose) was 7.6 ± 3.3 µM. For the same compound, the IC50 (HepaRG cells [2]; Homo sapiens, HepaRG, wk 4 exposure, galactose media, read-out: IC50-ATP ± S.D., Galactose) was 7.3 ± 0.5 µM, the IC50 (HepaRG cells [2]; Homo sapiens, HepaRG, wk 4 exposure, glucose media, read-out: IC50-ATP ± S.D., Glucose) was 4.9 ± 1.5 µM and the “Individual mean mitochondrial area” value (HepaRG cells [11]) was 0.19 ± 0.01 μm^2. The Number of mitochondria (HepaRG cells [11]) was 0.80 ± 0.20 mitochondria/μm^2 of cytosol, the “mtDNA content, % of vehicle control” value (HepaRG cells [12]; 4 μM, week 1) was 59.2 ± 26.5% and the “mtDNA content, % of vehicle control” value (HepaRG cells [12]; 10 μM, 1 week) was 23.5 ± 11.9%. The “mtDNA content, % of vehicle control” value (HepaRG cells [12]; 10 μM, 4 weeks) was 5.8 ± 3.0% and the “TC50 (Toxicity Concentration)” value (HepG2 cells [13]) was 35 µM.
